# In patent US20040127416A1, “Therapeutic bioconjugates” (priority 2002, published 2004):
# Ends that are not written are not given here. glycidyl methacrylate‑derivatized dextran = not defined here
# T1: ICAM-1 expressed on TNF-alpha stimulated bovine endothelial cells (BEC) (bovine, UniProt Q95132 28-535)
# T1 sequence (looked up): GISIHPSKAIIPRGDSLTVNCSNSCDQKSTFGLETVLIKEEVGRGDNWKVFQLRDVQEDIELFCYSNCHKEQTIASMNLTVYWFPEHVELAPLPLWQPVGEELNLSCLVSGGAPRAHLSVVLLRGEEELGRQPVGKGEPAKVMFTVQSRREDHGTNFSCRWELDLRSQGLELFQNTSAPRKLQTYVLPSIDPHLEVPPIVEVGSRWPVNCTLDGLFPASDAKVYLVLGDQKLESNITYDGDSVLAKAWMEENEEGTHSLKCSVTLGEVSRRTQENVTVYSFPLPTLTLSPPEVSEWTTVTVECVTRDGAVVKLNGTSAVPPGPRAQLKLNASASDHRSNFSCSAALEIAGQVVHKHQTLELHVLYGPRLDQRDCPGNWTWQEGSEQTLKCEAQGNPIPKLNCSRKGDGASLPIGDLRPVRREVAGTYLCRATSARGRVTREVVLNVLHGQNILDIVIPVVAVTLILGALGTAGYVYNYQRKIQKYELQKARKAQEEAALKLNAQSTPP
# Experiments:
# [1] = system: TNF-α stimulated, ICAM-expressing BECs; assay: inflammatory cell adhesion assay: U937 monocyte adhesion to TNF-α stimulated bovine endothelial cell monolayers; type: cell-based; settings: U937 cells on TNF-α stimulated
# Procedure: This experiment illustrates the activity of the bioconjugate, whose synthesis was described above, in the inflammatory cell adhesion assay. Bovine endothelial cell (BEC) monolayers were established in 24-well culture dishes. At 24 h prior to the assay, normal medium (Minimal Eagle's Medium with 10% fetal bovine serum, 1% ABAM and 1% L-glutamine) (Gibco, CA, USA) was replaced with medium containing tumor necrosis factor α (TNF-α, 10 ng/ml). Following the 24 h incubation period, each sample well received a medium change.
# Treated sample groups received medium containing 6% dextran bioconjugate or 6% bioconjugate. […] Two other control treatments were given: a medium change with no dextran or peptide was given to a sample group pretreated with TNF-α, and a positive control that was not pretreated with TNF-α. After a 30-minute incubation period, the medium in all wells was replaced with medium containing the human monocyte cell line U937 (1×10^5/ml) (ATCC, Manassas, Va.). All samples were incubated for another 30 minutes, then washed three times with PBS to remove non-adherent cells. The average number of adherent cells per 100× microscopic field was determined for each sample group.
# [2] = system: inflammatory HUVECs; assay: in vitro ICAM-1-mediated leukocyte cell adhesion assay: U937 adhesion to TNF-α treated HUVEC monolayers; type: cell-based, human; settings: TNF-α (10 ng/ml, 24 h) treated HUVECs; medium containing 6% dextran bioconjugate, 30 min; n=4 wells
# Procedure: To assess the effect of these peptide-dextran bioconjugates on inflammatory cell adhesion, the following in vitro ICAM-1-mediated leukocyte cell adhesion assay was performed. HUVEC monolayers were established in 24-well culture dishes. At 24 h prior to the assay, normal culture media were replaced with medium containing TNF-α (10 ng/ml). Following the 24 h incubation period, each sample well received a medium change. Treated sample groups received medium containing 6% dextran bioconjugate (dextran conjugated to the A domain peptide CNAFKILVVITDGEK). Untreated control samples received normal medium. Negative sham control samples received medium containing dextran conjugate with a scrambled A domain sequence (KCENGADFTKIIVLV). All samples were then incubated for 30 min prior to the adhesion assay. Medium was removed from all wells following the 30 min incubation and replaced with medium containing U937 monocytic cells (1×10^5/ml). All samples were then incubated for another 30 min. After this incubation period, samples were washed three times with PBS to remove non-adherent monocytes. The samples were then fixed, and an average number of adherent monocytes per 100× microscopic field was determined for each sample group. Statistical comparisons between sample groups (n=4 replicate wells per group) were performed using a student's t-test.
# [3] = biological target: T1, ICAM-1 expressed on TNF-alpha …; assay: cell-based or functional assay
molecule,measurement,setting,value
"CTVDLKFGIKNIEAV [inactive peptide, reference compound]",effect on monocyte adhesion (in words),[1],comparable to no treatment after the TNF-α activation
"active peptide conjugate: methacroylated dextran (about 70 kD) coupled to synthetic peptide CNAFKILVVITDGEK, based on the ICAM-1-binding portion of integrin αmβ2 (CD11b/CD18) (also: coupled to methacroylated dextran (about 70 kD), site not given here)",U937 cell adhesion reduced by,[2],87.7%
same,effect on monocyte adhesion (in words),[1]; listed as active dextran bioconjugate,prevented monocyte adhesion to the extent observed in non-stimulated BECS
same,effect on monocyte adhesion (in words),[1]; listed as bioconjugate,"reducing monocyte adhesion to levels observed in control, non-stimulated cells"
"inactive peptide conjugate: dextran bioconjugate containing an inactive scrambled sequence of the A-domain peptide, CTVDLKFGIKNIEAV; sham control (also: conjugated to dextran, attachment site not given here) [reference compound]",effect on monocyte adhesion (in words),[1],inhibited cell adhesion poorly
"C(glycidyl methacrylate‑derivatized dextran)NAFKILVVITDGEK (reading uncertain; also: polyvalent conjugate on dextran, peptides per dextran not given here)",relative monocyte adherence (U937 cells on TNF-alpha activated BEC; negative control = 100%),[3],3.34%
CTVDLKFGIKNIEAV (not fully specified (residue 1); also: Cys sulfhydryl coupled to glycidyl methacrylate-derivatized dextran (about 70 kD)) [dextran bioconjugate containing the inactive scrambled A-domain peptide CTVDLKFGIKNIEAV],relative monocyte adherence (U937 cells on TNF-alpha activated BEC; negative control = 100%),[3],55.6%
"CNAFKILVVITDGEK [synthetic peptide CNAFKILVVITDGEK, unconjugated]",relative monocyte adherence (U937 cells on TNF-alpha activated BEC; negative control = 100%),[3],56.3%
"CTVDLKFGIKNIEAV [inactive scrambled peptide CTVDLKFGIKNIEAV, unconjugated]",relative monocyte adherence (U937 cells on TNF-alpha activated BEC; negative control = 100%),[3],95.7%
